“Also recorded” adds a separate entry of the source.
How the values were obtained:
[1] = system: patients affected by either non-ulcer dyspepsia, biliary dyskinesis or irritable bowel syndrome; experiment: Open clinical study in digestive disorders: overall (psychosomatic) condition; format: in vivo, human; conditions: % of cases, 3 months, group A 150 mg ursodeoxycholic acid, group B 300 mg quercetin, group C Example 2; for Overall (psychosomatic) condition: Improved: unrestricted fat diet
Source text: The patients treated with the composition of the invention during or at the end of the meals were able to digest any type of foods including heavy or spicy ones. […] The improvement of the symptoms of patients treated with the composition of Example 2 was higher than that of the bile acid or bioflavonoid treatment alone.
(§1) In these studies 48 patients affected by either non-ulcer dyspepsia, biliary dyskinesis or irritable bowel syndrome were involved. 24 patients with unrestricted fat diet received only 150 mg of ursodeoxycholic acid (group A) and 24 patients only bioflavonoid (300 mg of quercetin) (group B) for 3 months. After one-month washout both groups received ursodeoxycholic acid+quercetin (Example 2) (group C) for another 3 months.
The overall (psychosomatic) condition and subjective symptoms were compared to the results of an age and sex matched control group.
The evaluation of the psychosomatic condition: improved, unchanged, worsened.

[2] = system: patients affected by either non-ulcer dyspepsia, biliary dyskinesis or irritable bowel syndrome; experiment: Open clinical study in digestive disorders: subjective gastrointestinal symptoms, grade 0-3; format: in vivo, human; conditions: total number of points/number of patients, 3 months, control group value in brackets
Experimental: as §1
The gastrointestinal symptoms (postprandial early satiety, abdominal distention or bloating, nausea, vomitus, diarrhea, constipation) were evaluated by using the following grading system:
The treatments A, B and C shown in point 1 were used. In Table 2 the average complaint ratio related to one patient was given (average complaint ratio=total number of points/number of patients). The values of the control groups are given in brackets.

[3] = system: female patients affected by digestive disorders, "dry eye" syndrome and premenstrual syndrome; experiment: Improvement of activity of fat-soluble substances: "dry eye" syndrome symptoms; format: in vivo, human
Experimental: (§2) 72 female patients affected by digestive disorders, “dry eye” syndrome and premenstrual syndrome were treated Intramuscularly administered vitamin A improved the symptoms of “dry eye” and premenstral syndrome, but it was ineffective by peroral administration.
The subjective symptoms were evaluated by questionairs by using the following grade:
“Dry eye” syndrome has the following symptoms: sensation of dryness, foreign body, tired eye, soreness, scatchiness, burning, reduced tearing of emotion, difficulties of opening the eye upon waking, episodes of excessive tearing, particular sensibility to wind, air conditioning, smoking, topical medication. Objective signs: particulate matter on the ocular surface, mucusthread at the inner canthus or in the lower fornix, deposits at the orefices of the meibomian glands, filamentary keratitis, hyperemia of the bulbar conjunctiva, papillary hypertrophy of the tarsal conjunctiva, thin tear meniscus, decreased brightness of the bulbar conjunctiva, frequent blinking, tear film abnormalities with fluorescein staining.
The patients were treated as follows:
(§3) Treatment A: 300.000 IU vitamin A in oil intramuscular administration ones per months,
(§4) Treatment B: 50.000 IU vitamin A acetate dragée peroral administration, once every second day,
(§5) Treatment C: 50.000 IU vitamin A acetate dragée peroral administration, once every second day+composition of the invention (Example 4).

[4] = system: female patients affected by digestive disorders, "dry eye" syndrome and premenstrual syndrome; experiment: Treatment of premenstrual symptoms; format: in vivo, human
Experimental: as §2, §3, §4, §5
Symptoms of the premenstrual syndrome: food (sweets or chocolate) craving, exhaustion, irritability, fearfullness, anxiety or depression, hostility, feeling out of control, confusion, sleep disturbances, acne, fluid retention, weight gain, breast swelling, aches and pains, bloating, constipation or diarrhoea.
The number of patients, methods of treatment and the grade of evaluation were the same as shown in experiment 3.

[5] = system: Dry eye model in Wistar rats by retrobulbar injection of capsaicin; experiment: Topical treatment of "dry eye": capsaicin dry eye model; format: in vivo; conditions: one drop 3 times per day
Experimental: Dry eye model was created in 16 Wistar rats in one eye by retrobulbar injection of capsaicin as it was published in [Camras PCB, Bito L Z: The pathophysiological effects of nitrogen mustard on the rabbit eye. II. The inhibition of the initial hypersensitive phase by capsaicin and the apparent role of substance P. Invest Ophthaimol Vis Sci. 19, 423-8 (1980)], while the other eye (control) was not treated at all.
The following treatments were applied:
A treatment: 4 rats were treated with topical artificial tear drops, one drop 3 times per day;
B treatment: 4 rats were treated with the composition of Example 10, one drop 3 times per day,
C treatment: 4 rats were treated with the composition of Example 10, one drope 3 times per day+one drop of vitamin A 3 times per day (oil drop; 30 000 IU/ml),
D treatment: 4 rats were treated with vitamin A, one drop 3 times per day (oil drop 30 000 IU/ml).
The condition of eyes were registered as written in the literature and evaluated 4 weeks after treatment on the following scale:
1=punctiform ephitelial loss of the cornea;
2=large ephitelial loss of the cornea with mild corneal edema;
3=large ephitelial loss of the cornea with severe corneal edema.

[6] = peroral, 50.000 IU vitamin A acetate dragée once every second day (Treatment B alone, Treatment C + Example 4)
[7] = Treatment A: 300.000 IU vitamin A in oil, intramuscular, once per month

## O=c1c(O)c(-c2ccc(O)c(O)c2)oc2cc(O)cc(O)c12 [quercetin]
[1]
  Overall (psychosomatic) condition: Unchanged or worsened: 55%
  Overall (psychosomatic) condition: Improved: 45%
[2]
  Diarrhoea/constipation, average complaint ratio: 0.63 (2.54)
  Meteorism, average complaint ratio: 1.96 (2.33)
  Nausea, average complaint ratio: 0.92 (1.25)
  Satiety, average complaint ratio: 2.04 (2.86)
  Vomitus, average complaint ratio: 0.46 (0.75)

## C[C@H](CCC(=O)O)[C@H]1CC[C@H]2[C@@H]3[C@@H](O)C[C@@H]4C[C@H](O)CC[C@]4(C)[C@H]3CC[C@]12C [ursodeoxycholic acid]
[1]
  Overall (psychosomatic) condition: Unchanged or worsened: 33%
  Overall (psychosomatic) condition: Improved: 67%
[2]
  Diarrhoea/constipation, average complaint ratio: 2.19 (2.54)
  Meteorism, average complaint ratio: 2.12 (2.78)
  Nausea, average complaint ratio: 0.83 (1.17)
  Satiety, average complaint ratio: 2.06 (2.92)
  Vomitus, average complaint ratio: 0.12 (0.83)

## CC(=O)OC/C=C(C)/C=C/C=C(C)/C=C/C1=C(C)CCCC1(C)C [vitamin A acetate]
[3]; [6]
  "Dry eye" symptoms: Improved: 12%
  "Dry eye" symptoms: Unchanged: 88%
[4]; [6]
  Premenstrual symptoms: Improved: 8%
  Premenstrual symptoms: Unchanged: 92%

## vitamin A
[3]; [7]
  "Dry eye" symptoms: Improved: 80%
  "Dry eye" symptoms: Unchanged: 20%
[3]; intramuscular administration
  Symptoms of "dry eye", in words: improved
[3]; peroral administration
  Symptoms of "dry eye", in words: ineffective; also recorded: improved only weakly
[4]; [7]
  Premenstrual symptoms: Improved: 72%
  Premenstrual symptoms: Unchanged: 28%
[4]; intramuscular administration
  Symptoms of premenstrual syndrome, in words: improved
[4]; peroral administration
  Symptoms of premenstrual syndrome, in words: ineffective; also recorded: hardly improve
[5]; compared to artificial tear drops
  Improvement of eye alteration (in words): not significant
[5]; evaluated 4 weeks after treatment on scale 0-3, vitamin A oil drop 30 000 IU/ml
  Reduced eye alteration compared to treatment with artificial tear drop (treatment A): <5%
